From patent US10662210B2, “Compositions and methods comprising osmium for the treatment of cancers” (Massachusetts Institute of Technology, priority 2014, dated 2020)

What was measured:
Format in all cases: cell-based, human
[1] = tested on: phosphorylated eIF2α and CHOP in A2780 cells; test: Immunoblotting analysis, unfolded protein response; settings: 72 hours
Method: This finding led to the investigation of the possibility that 4 may induce endoplasmic reticulum (ER) stress. Co-administration of 4 and salubrinal (10 μM), a known ER stress inhibitor, reduced the cytotoxicity of 4 in A2780 cells. […] To further validate the ER as the main target for 4, the expression of proteins related to the unfolded protein response (UPR) was monitored. […] ER membrane expansion is widely associated with ER stress. With this fact in mind the ER size of A2780 cells upon incubation with 4 were examined using fluorescence microscopy. Relative to untreated controls (FIG. 3B), cells exposed to 4 (10 μM) for 4 h had 25.1% larger ER coverage (FIG. 3C). The ER size relative to the whole cell of the untreated controls was about 30% and the ER size relative to the whole cell of the treated samples was about 55%.
A2780 cells (5×10^5 cells) were incubated with the osmium complexes (concentrations, μM) for 72 h at 37° C. Cells were washed with PBS, scraped into SDS-PAGE loading buffer (64 mM Tris-HCl (pH6.8)/9.6% glycerol/2% SDS/5% β-mercaptoethanol/0.01% Bromophenol Blue), and incubated at 95° C. for 10 min. […] After incubation with horseradish peroxidase-conjugated secondary antibodies (Cell Signalling Technology), immune complexes were detected with the ECL detection reagent (BioRad) and analyzed using an Alpha Innotech ChemiImager™ 5500 fitted with a chemiluminescence filter.

[2] = tested on: phosphorylated H2AX (γH2AX), CHK2, CHK1, p53 (Ser15) in A2780 cells; test: Immunoblotting analysis, DNA damage pathway; settings: 72 hours
Method: To gain further insight into the modes of action of 2 and 4, immunoblotting analyses were conducted to monitor changes in expression of biomarkers related to the DNA damage pathway (FIG. 8). […] This difference could be related to steric effects imposed by the phenyl groups in 4.
A2780 cells (5×10^5 cells) were incubated with the osmium complexes (concentrations, μM) for 72 h at 37° C. Cells were washed with PBS, scraped into SDS-PAGE loading buffer (64 mM Tris-HCl (pH6.8)/9.6% glycerol/2% SDS/5% β-mercaptoethanol/0.01% Bromophenol Blue), and incubated at 95° C. for 10 min. Whole cell lysates were resolved by 4-20% sodium dodecylsulphate polyacylamide gel electrophoresis (SDS-PAGE; 200 V for 25 min) followed by electro transfer to polyvinylidene difluoride membrane, PVDF (350 mA for 1 h). Membranes were blocked in 5% (w/v) non-fat milk in PBST (PBS/0.1% Tween 20) and incubated with the appropriate primary antibodies (Cell Signalling Technology and Santa Cruz). After incubation with horseradish peroxidase-conjugated secondary antibodies (Cell Signalling Technology), immune complexes were detected with the ECL detection reagent (BioRad) and analyzed using an Alpha Innotech ChemiImager™ 5500 fitted with a chemiluminescence filter.

[3] = tested on: A2780 cells; test: DNA flow cytometric cell cycle analysis
Method: After 24 hours untreated A2780 cells had the following distribution: G1: 73.4%, S: 21.7%, and G2/M: 5.0%. After 48 hours untreated A2780 cells had the following distribution: G1: 75.1%, S: 19.6%, and G2/M: 5.2%. After 72 hours untreated had the following distribution: G1: 73.6%, S: 21.0%, and G2/M: 5.4%. After 24 hours A2780 cells treated with 2 had the following distribution: G1: 61.0%, S: 27.9%, and G2/M: 11.1%. After 48 hours A2780 cells treated with 2: G1: 61.8%, S: 19.0%, and G2/M: 19.1%. After 72 hours A2780 cells treated with 2 had the following distribution: G1: 57.3%, S: 23.3%, and G2/M: 19.4%. This property may be related to upregulation of p53 and phosphorylation of CHK1. Complex 4 induced relatively small perturbations to the cell cycle; changes in phase populations remained <5% even after a 72-hours incubation. After 24 hours untreated A2780 cells had the following distribution: G1: 73.7%, S: 23.1%, and G2/M: 3.3%. After 48 hours untreated A2780 cells had the following distribution: G1: 73.4%, S: 21.7%, and G2/M: 4.9%. After 72 hours untreated A2780 cells had the following distribution: G1: 79.7%, S: 19.4%, and G2/M: 0.9%. After 24 hours A2780 cells treated with 4 had the following distribution: G1: 70.9%, S: 24.8%, and G2/M: 4.6%. After 48 hours A2780 cells treated with 4 had the following distribution: G1: 71.9%, S: 18.3%, and G2/M: 9.8%. After 72 hours A2780 cells treated with 4 had the following distribution: G1: 70.3%, S: 24.4%, and G2/M: 5.3%.
In order to monitor the cell cycle, flow cytometry studies were carried out. A2780 cells were incubated with and without the test compounds for 24-72 h at 37° C. Studies on A549 cells under normal and starved (proliferating and non-proliferating) conditions were also carried out. Cells were harvested from adherent cultures by trypsinization. Following centrifugation at 1000 rpm for 5 min, cells were washed with PBS and then fixed with 70% ethanol in PBS. Fixed cells were collected by centrifugation at 2500 rpm for 3 min, washed with PBS and centrifuged as before. Cellular pellets were re-suspended in 50 μg/ml propidium iodide (Sigma) in PBS for nucleic acids staining and treated with 100 μg/ml RNaseA (Sigma). DNA content was measured on a FACSCalibur-HTS flow cytometer (BD Biosciences) using laser excitation at 488 nm and 20,000 events per sample were acquired. Cell cycle profiles were analysed using the ModFit software. For the apoptosis experiments, the Annexin V-FITC Early Apoptosis Detection Kit was used. The manufacture's protocol was followed to carry out this experiment. Briefly, untreated and treated cells (1×10^5) were suspended in 1× annexin binding buffer (96 μL) (10 mM HEPES, 140 mM NaCl, 2.5 mM CaCl2), pH 7.4), then 1 μL FITC annexin V and 12.5 μL PI (10 μg/mL) were added to each sample and incubated on ice for 15 min. After which more binding buffer (150 μL) was added while gently mixing. The samples were kept on ice prior to being read on the FACSCalibur-HTS flow cytometer (BD Biosciences) and 20,000 events per sample were acquired. Cell populations were analysed using the FlowJo software (Tree Star).

[4] = tested on: A2780 cells; test: Dual Annexin V staining/PI flow cytometry assay; settings: 72 hours
Method: To have a more complete understanding of the cellular response induced by 2 or 4, their mode of cell killing was evaluated. Many clinically approved cancer drugs exert their cytotoxic effects through apoptosis, and so the features related to this pathway were monitored. Apoptotic cells underwent morphological changes that lead to cell membrane disorientation. […] Cells can undergo other forms of cell death such as necrosis and autophagy. To probe these pathways, cytotoxicity assays were carried out in the presence of […], chloroquine, and IM-54, respectively. Because both chloroquine and IM-54 had little effect on the potency of either of the osmium complexes, necrosis and autophagy were ruled out as possible death pathways. […] On the other hand, 4 initiated ER stress, culminating in p53 independent, caspase directed apoptosis (FIG. 4).
In order to monitor the cell cycle, flow cytometry studies were carried out. […] DNA content was measured on a FACSCalibur-HTS flow cytometer (BD Biosciences) using laser excitation at 488 nm and 20,000 events per sample were acquired. Cell cycle profiles were analysed using the ModFit software. […] The samples were kept on ice prior to being read on the FACSCalibur-HTS flow cytometer (BD Biosciences) and 20,000 events per sample were acquired. Cell populations were analysed using the FlowJo software (Tree Star).

## [N]#[Os]1([Cl])([Cl])([Cl])[N]2C=CC(c3ccccc3)=c3ccc4c(c32)[N]1C=CC=4c1ccccc1 [Complex 4, OsN(4,7-diphenyl-1,10-phenanthroline)Cl3]
[1]
  phosphorylated eIF2α and CHOP expression: upregulated
[2]
  expression of DNA damage pathway biomarkers: little signs of DNA damage
[3]; 24 hours
  cell cycle distribution G1: 70.9%
  cell cycle distribution G2/M: 4.6%
  cell cycle distribution S: 24.8%
[3]; 48 hours
  cell cycle distribution G1: 71.9%
  cell cycle distribution G2/M: 9.8%
  cell cycle distribution S: 18.3%
[3]; 72 hours
  cell cycle distribution G1: 70.3%
  cell cycle distribution G2/M: 5.3%
  cell cycle distribution S: 24.4%
[3]; up to 72-hours incubation
  changes in phase populations: < 5%
[4]
  occurrence of apoptosis (Annexin V/PI): induced large populations of cells to undergo early and late stage apoptosis

## [N]#[Os]1([Cl])([Cl])([Cl])[N]2C=CC=c3ccc4c(c32)[N]1C=CC=4 [Complex 2, OsN(1,10-phenanthroline)Cl3]
[1]
  phosphorylated eIF2α and CHOP expression: little effect
[2]
  expression of DNA damage pathway biomarkers: marked increase in expression of the phosphorylated forms of H2AX (γH2AX), CHK2, CHK1, and p53 (Ser15)
[3]; 24 hours
  cell cycle distribution G1: 61.0%
  cell cycle distribution G2/M: 11.1%
  cell cycle distribution S: 27.9%
[3]; 48 hours
  cell cycle distribution G1: 61.8%
  cell cycle distribution G2/M: 19.1%
  cell cycle distribution S: 19.0%
[3]; 72 h incubation
  increase in G2/M population: ~3 fold
[3]; 72 hours
  cell cycle distribution G1: 57.3%
  cell cycle distribution G2/M: 19.4%
  cell cycle distribution S: 23.3%
[4]
  occurrence of apoptosis (Annexin V/PI): induced large populations of cells to undergo early and late stage apoptosis
